Columns and labels:
[1] = tested on: Acinetobacter library cells; assay: Inhibition of growth of Acinetobacter library cells by ampicillin in liquid culture; assay type: cell-based, Acinetobacter sp. strain BD413
Experimental: Clones hypersusceptible to the β-lactam drug ampicillin, an antibiotic that is well known to cause bacterial lysis, were selected. As compared to E. coli, Acinetobacter is remarkably resistant to ampicillin.
To purify the DNA released, bacterial cells from the insertional library of Acinetobacter were diluted in LB medium to OD600 0.025 and allowed to grow at 37° C. to OD600 0.1. Ampicillin was added to 5 ml aliquots of the culture at a variety of concentrations. After two hours, the cells were removed by centrifugation. DNA released into the medium in response to incubation with ampicillin was purified using a variation of the Wizard DNA purification protocols of Promega. Specifically, three grams of guanidine-HCl was dissolved in 5 ml of the culture medium and 1 ml of the slurry of DNA-binding silica resin (Promega Wizard DNA purification resin) was added. After a 5 min incubation with shaking, the resin was collected in a mini-column by passing the slurry through it with a syringe. […]
Cells of a frozen insertional library of Acinetobacter were diluted in LB medium to OD600 0.025 and allowed to grow at 37° C. to OD600 0.1, at which point ampicillin was added to 5 ml aliquots of the culture at the indicated concentrations. Two hours later the density of the cultures was measured, cells were removed by centrifugation and the DNA released into the medium was purified. […]

[2] = tested on: Acinetobacter library cells and SDR-selected clones; assay: Growth of clones replica-plated on LB-agar plates with different concentrations of ampicillin; assay type: cell-based, Acinetobacter sp.
Experimental: Each individual clone was inoculated into a well of a 96-well plate. When the cultures reached the density of approx. OD600 0.2-0.5, they were transferred by using a 6×8-pin replicator onto LB-agar plates containing kanamycin (25 μg/ml) and different concentrations of ampicillin. Plates were digitally scanned after 24 hr of incubation at 37° C. (FIG. 3). The spots indicated as Library are identical cultures from the original library and serve here as controls.
The computer scans of different plates were combined in a single set. This study has been conducted essentially as described in Example 2.

LIT1 strain = assay: Release of DNA and growth of the LIT1 lysis reporter strain with translational inhibitors; assay type: cell-based, Acinetobacter; settings: LIT1 clone; for DNA released in presence of antibiotic versus absence, normalized per ml of culture: 2 h (chloramphenicol) or 1.5 h (erythromycin, tetracycline)
Experimental: The LIT1 cells were inoculated in LB at OD600 0.05 and grown at 37° C. to OD600 0.2 at which time antibiotics were added at indicated concentrations. Two (chloramphenicol) or 1.5 (erythromycin and tetracycline) hours later the OD600 of the cultures were measured, cells were spun down and the released DNA was purified as described above. The amounts of DNA in μg normalized per milliliter of culture was determined fluorimetrically by adding an aliquot of the isolated DNA to the solution of ethidium bromide (0.5 μg/ml) and measuring the fluorescence at λex 540 and λem 580 nm (FIG. 7). The values obtained were compared with the calibration curve for known amounts of DNA.

[3] = tested on: alkM model strain (lysis cassette under alkM promoter); assay: Induction of DNA release by hexadecane in the alkM model strain; assay type: cell-based, Acinetobacter
Experimental: (§1) FIG. 6—Gene organization in the alkM model strain and induction of DNA release before and after SDR selection. Transformants 1 and 2 and the derivative of the transformant 1 after four cycles of SDR selection were grown to OD600 0.3 and a drop of hexadecane was added to 5 ml of the culture. After overnight incubation (induction of the alkM expression occurs only in stationary phase (Ratajczak et al., J. Bacteriol. 180(22):5822-7, 1998)) the released DNA was purified from the medium as described in the text.
(§2) A model strain of Acinetobacter with the lysis cassette of λ inserted under the control of a antibiotic-inducible promoter was constructed and determined to release DNA in response to the antibiotic inducer. A promoter of the alkM gene of Acinetobacter, which encodes an enzyme involved in degradation of hydrocarbons and whose expression is activated dramatically by hexadecane, was chosen (Ratajczak et al., 1998). The promoter-less lysis cassette was PCR-amplified from the DNA of λ. The 5′-end of the gene of S-protein, which is the limiting factor in lysis (Young, 1992), was modified by an appropriately designed PCR primer. In particular, the alternative start codon from which an inhibitory variant of S is translated has been eliminated by mutation. […]

wild-type Acinetobacter = assay: DNA release by hexadecane in wild-type Acinetobacter; assay type: cell-based
Experimental: as §1, §2

E. Coli = settings: bulgecin as known inhibitor of Slt; cited from earlier work

In the case of `CC1(C)S[C@@H]2[C@H](NC(=O)[C@H](N)c3ccccc3)C(=O)N2[C@H]1C(=O)O` [ampicillin], the “growth inhibition at the concentrations used for SDR selection” value ([1]; 1, 3 and 9 μg/ml ampicillin, little lysis) is reported as “only moderate growth inhibition”, the “ampicillin concentration at which slow growth was still observed” value ([1]; liquid culture, LB, 37° C., two hours) is reported as 729 µg/mL and the “ampicillin concentration on plates at which library cells were still growing” value ([2]; original library cells, LB-agar, 24 hr) is reported as 32 µg/mL. For the same compound, the “ampicillin concentration at which clones could not grow” value ([2]; seventeen of 30 tested clones selected with 3 μg/ml of ampicillin) was 1 µg/mL.
With `O=C(N[C@H](CO)[C@H](O)c1ccc([N+](=O)[O-])cc1)C(Cl)Cl` [chloramphenicol] the “increase of released DNA normalized per number of cells” value (LIT1 strain) was “approximately ten-fold” and the “DNA released in presence of antibiotic versus absence, normalized per ml of culture” value (LIT1 strain) was “four times more”.
With `CC[C@H]1OC(=O)[C@H](C)[C@@H](O[C@H]2C[C@@](C)(OC)[C@@H](O)[C@H](C)O2)[C@H](C)[C@@H](O[C@@H]2O[C@H](C)C[C@H](N(C)C)[C@H]2O)[C@](C)(O)C[C@@H](C)C(=O)[C@H](C)[C@@H](O)[C@]1(C)O` [erythromycin] the “increase of released DNA normalized per number of cells” value (LIT1 strain) was “approximately ten-fold” and the “DNA released in presence of antibiotic versus absence, normalized per ml of culture” value (LIT1 strain) was “four-fold”.
For `CCCCCCCCCCCCCCCC` [hexadecane], the “effect on optical density of the culture” value ([3]; model strain before SDR selection) was “did not cause significant reduction”, the “effect on amount of DNA released” value ([3]; transformants, drop of hexadecane in 5 ml culture, overnight) was “significant increase” and the “effect on release of DNA” value (wild-type Acinetobacter) was “no effect”.
In the case of `CN(C)[C@@H]1C(O)=C(C(N)=O)C(=O)[C@@]2(O)C(O)=C3C(=O)c4c(O)cccc4[C@@](C)(O)[C@H]3C[C@@H]12` [tetracycline], the “increase of released DNA normalized per number of cells” value (LIT1 strain) is reported as about 35 fold.
For bulgecin, the “effect on sensitivity to the β-lactam antibiotic cefoxitin” value (E. Coli) is given as “increase the sensitivity”.

— US20020076722A1, “Antibiotic hypersusceptibility mutations in bacteria” (priority 2000, published 2002)
